The target in one test is IDH1 R132C (Homo sapiens, UniProt O75874, R132C). Put plainly: Enzymatic inhibition assay, mutant IDH1 R132C (NADPH depletion coupled to diaphorase/resazurin). It is filed as biochemical. The following applies: IDH1 R132C enzyme, IC50 class. As to the method: (§1) Assays were conducted in a 1536-well black solid-bottom plate with a final assay volume of 9 μL.
For IDH1 R132C, 3 μL of enzyme (0.00032 mg/mL IDH1 R132H, 10% glycerol, 50 mM potassium phosphate pH 6.5, 5 mM MgCl2, 0.03% BSA) were added to the plate, followed by the addition of 23 nL of test compound in DMSO. The plate was lidded and incubated at room temperature for 30 minutes at which time 3 μL of substrate were added (0.012 mM NADPH, 0.6 mM α-KG, 10% glycerol, 50 mM potassium phosphate pH 6.5, 5 mM MgCl2, 0.03% BSA). […]

A further test concerns the target IDH1 R132H (Homo sapiens, UniProt O75874, R132H). Put plainly: Enzymatic inhibition assay, mutant IDH1 R132H (NADPH depletion coupled to diaphorase/resazurin). It is filed as biochemical. As to conditions: IDH1 R132H enzyme, IC50 class. Here is the method: as §1
Specifically, for IDH1 R132H, 3 μL of enzyme (4 mM β-ME, 0.0005 mg/mL IDH1 R132H, 150 mM NaCl, 20 mM Tris pH 7.5, 10 mM MgCl2, 0.05% BSA) were added to the plate, followed by the addition of 23 nL of test compound in DMSO. The plate was lidded and incubated at room temperature for 30 minutes at which time 3 μL of substrate were added (0.016 mM NADPH, 2 mM α-KG, 150 mM NaCl, 20 mM Tris pH 7.5, 10 mM MgCl2, 0.05% BSA). This reaction was incubated at room-temperature for 60 minutes at which time the detection mix was added (0.06 mg/mL diaphorase, 0.036 mM resazurin, 150 mM NaCl, 20 mM Tris pH 7.5, 10 mM MgCl2, 0.05% BSA). […]

The structures appear in SMILES notation.

IDH1 R132C, sequence (O75874 whole entry R132C): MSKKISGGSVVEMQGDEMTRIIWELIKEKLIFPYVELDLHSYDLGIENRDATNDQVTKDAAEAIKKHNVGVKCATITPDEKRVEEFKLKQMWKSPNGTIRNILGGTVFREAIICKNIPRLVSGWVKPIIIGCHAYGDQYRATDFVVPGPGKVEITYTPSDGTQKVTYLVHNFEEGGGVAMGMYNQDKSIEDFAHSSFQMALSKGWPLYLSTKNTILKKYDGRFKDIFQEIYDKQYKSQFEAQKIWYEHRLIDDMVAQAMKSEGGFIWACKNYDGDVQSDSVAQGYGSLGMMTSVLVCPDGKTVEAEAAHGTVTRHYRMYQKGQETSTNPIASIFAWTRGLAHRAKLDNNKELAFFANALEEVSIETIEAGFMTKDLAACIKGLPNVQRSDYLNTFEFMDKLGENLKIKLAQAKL
IDH1 R132H, sequence (O75874 whole entry R132H): as the sequence (O75874 whole entry R132C) above, with C132H counted along it

For the compound `CCOc1ccc(Cl)cc1-n1c(C=C(C)C)c(C(=O)N2CC3CCC(C2)N3)cc(-c2nc(-c3ccc(Cl)cc3)cs2)c1=O` (single isomer, unassigned) [Compound 113-1], the IC50 at IDH1 R132C and against IDH1 R132H was less than 300 nM throughout.

With `CCOc1ccc(Cl)cc1-n1c(C=C(C)C)c(C(=O)N2CC3CCC(C2)N3)cc(-c2nc(-c3ccc(Cl)cc3)cs2)c1=O` (single isomer, unassigned) [Compound 113-2], the results for the IC50 on IDH1 R132C and at IDH1 R132H were 300 to 1000 nM and 1000 to 5000 nM, respectively.

As for `CCc1ccc(OC)cc1-n1c(C=C(C)C)c(C(=O)N2C[C@H]3CC[C@@H](C2)N3)cc(-c2nc(-c3ccc(Cl)cc3)cs2)c1=O` (single isomer, unassigned) [Compound 114-1], the IC50 at IDH1 R132C and on IDH1 R132H was less than 300 nM each time.

Regarding `CCc1ccc(OC)cc1-n1c(C=C(C)C)c(C(=O)N2C[C@H]3CC[C@@H](C2)N3)cc(-c2nc(-c3ccc(Cl)cc3)cs2)c1=O` (single isomer, unassigned) [Compound 114-2], the IC50 on IDH1 R132C and against IDH1 R132H was 300 to 1000 nM each time.

Take `CCOc1ccc(Cl)c(-n2c(C=C(C)C)c(C(=O)N3CC4CCC(C3)N4)cc(-c3nc(-c4ccc(Cl)cc4)cs3)c2=O)c1` (single isomer, unassigned) [Compound 126-1]: the IC50 at IDH1 R132C and against IDH1 R132H was less than 300 nM throughout.

In the case of `CCOc1ccc(Cl)c(-n2c(C=C(C)C)c(C(=O)N3CC4CCC(C3)N4)cc(-c3nc(-c4ccc(Cl)cc4)cs3)c2=O)c1` (single isomer, unassigned) [Compound 126-2], the IC50 against IDH1 R132C and on IDH1 R132H was 1000 to 5000 nM throughout.

For the compound `CCc1ccc(Cl)cc1-n1c(C=C(C)C)c(C(=O)N2CC3CCC(C2)N3)cc(-c2nc(-c3ccc(Cl)cc3)cs2)c1=O` (single isomer, unassigned) [Compound 133-1], the figures for the IC50 against IDH1 R132C and against IDH1 R132H were less than 300 nM and 300 to 1000 nM, respectively.

As to `CCc1ccc(Cl)cc1-n1c(C=C(C)C)c(C(=O)N2CC3CCC(C2)N3)cc(-c2nc(-c3ccc(Cl)cc3)cs2)c1=O` (single isomer, unassigned) [Compound 133-2], the IC50 on IDH1 R132C fell in the range of 300 to 1000 nM; at IDH1 R132H, 1000 to 5000 nM.

`CCOc1ccc(Cl)c(-n2c(C=C(C)C)c(C(=O)N3CCNCC3)cc(-c3nc(-c4ccc(Cl)cc4)cs3)c2=O)c1` (single isomer, unassigned) [Compound 139-1]: the IC50 against IDH1 R132C and at IDH1 R132H was less than 300 nM each time.

As to `CCOc1ccc(Cl)c(-n2c(C=C(C)C)c(C(=O)N3CCNCC3)cc(-c3nc(-c4ccc(Cl)cc4)cs3)c2=O)c1` (single isomer, unassigned) [Compound 139-2], the IC50 against IDH1 R132C is 1000 to 5000 nM; on IDH1 R132H it was 300 to 1000 nM.

As for `CCOc1ccc(Cl)cc1-n1c(C=C(C)C)c(C(=O)N2CCNCC2)cc(-c2nc(-c3ccc(C#N)cc3)cs2)c1=O` (single isomer, unassigned) [Compound 140-1], the IC50 on IDH1 R132C and at IDH1 R132H was less than 300 nM throughout.

On to `CCOc1ccc(Cl)cc1-n1c(C=C(C)C)c(C(=O)N2CCNCC2)cc(-c2nc(-c3ccc(C#N)cc3)cs2)c1=O` (single isomer, unassigned) [Compound 140-2], for which the IC50 was 300 to 1000 nM against IDH1 R132C and less than 300 nM at IDH1 R132H.

For `CCOc1ccc(Cl)cc1-n1c(C=C(C)C)c(C(=O)N2CC3CCC(C2)N3)cc(-c2nc(-c3ccc(C#N)cc3)cs2)c1=O` (single isomer, unassigned) [Compound 141-1], the IC50 against IDH1 R132C and against IDH1 R132H was less than 300 nM throughout.

`CCOc1ccc(Cl)cc1-n1c(C=C(C)C)c(C(=O)N2CC3CCC(C2)N3)cc(-c2nc(-c3ccc(C#N)cc3)cs2)c1=O` (single isomer, unassigned) [Compound 141-2]: the IC50 was less than 300 nM on IDH1 R132C and 300 to 1000 nM against IDH1 R132H.

As to `CCOc1ccc(Cl)cc1-n1c(C=C(C)C)c(C(=O)N2CCNCC2)cc(-c2nc(-c3ccc(Cl)cc3)cs2)c1=O` (single isomer, unassigned) [Compound 143-1], on IDH1 R132C, the IC50 lay within 300 to 1000 nM.

Take `CCc1ccc(Cl)cc1-n1c(C=C(C)C)c(C(=O)N2CCNCC2)cc(-c2nc(-c3ccc(Cl)cc3)cs2)c1=O` (single isomer, unassigned) [Compound 144-1]: the IC50 against IDH1 R132C and at IDH1 R132H was less than 300 nM throughout.

For the compound `CCc1ccc(Cl)cc1-n1c(C=C(C)C)c(C(=O)N2CCNCC2)cc(-c2nc(-c3ccc(Cl)cc3)cs2)c1=O` (single isomer, unassigned) [Compound 144-2], the values for the IC50 at IDH1 R132C and on IDH1 R132H were 300 to 1000 nM and less than 300 nM, respectively.

On IDH1 R132C, `CCc1ccc(OC)cc1-n1c(C=C(C)C)c(C(=O)N2CCNCC2)cc(-c2nc(-c3ccc(Cl)cc3)cs2)c1=O` (single isomer, unassigned) [Compound 151-2] gave an IC50 of 300 to 1000 nM.

As to `CCc1ccc(Cl)cc1-n1c(C=C(C)C)c(C(=O)N2CCNCC2)cc(-c2nc(-c3ccc(Cl)cc3)cs2)c1=O` [Compound 101], the half-maximal inhibitory concentration (IC50) against IDH1 R132C and at IDH1 R132H was less than 300 nM each time.

`CCc1ccc(OC)cc1-n1c(C=C(C)C)c(C(=O)N2CCNCC2)cc(-c2nc(-c3ccc(C(F)(F)F)cc3)cs2)c1=O` [Compound 102]: the IC50 at IDH1 R132C and against IDH1 R132H was less than 300 nM each time.

As for `CCc1ccc(OC)cc1-n1c(C=C(C)C)c(C(=O)N2CCNCC2)cc(-c2nc(-c3ccc(C(F)(F)F)nc3)cs2)c1=O` [Compound 103], the IC50 at IDH1 R132C and on IDH1 R132H was less than 300 nM each time.

Regarding `CCc1ccc(OC)cc1-n1c(C=C(C)C)c(C(=O)N2CCNCC2)cc(-c2nc(-c3ccc(C(F)F)cc3)cs2)c1=O` [Compound 104], the IC50 at IDH1 R132C and on IDH1 R132H was less than 300 nM in each case.

Regarding `CCOc1ccc(Cl)c(-n2c(C=C(C)C)c(C(=O)N3CCNCC3)cc(-c3nc(-c4ccc(C(F)(F)F)cc4)cs3)c2=O)c1` [Compound 105], the IC50 against IDH1 R132C and against IDH1 R132H was less than 300 nM each time.

On to `CCOc1ccc(Cl)c(-n2c(C=C(C)C)c(C(=O)N3CCNCC3)cc(-c3nc(-c4ccc(C(F)F)cc4)cs3)c2=O)c1` [Compound 106], for which the IC50 against IDH1 R132C and against IDH1 R132H was less than 300 nM in each case.

With `CCOc1ccc(Cl)cc1-n1c(C=C(C)C)c(C(=O)N2CCN[C@@H](C)C2)cc(-c2nc(-c3ccc(C(F)(F)F)cc3)cs2)c1=O` [Compound 107], the IC50 at IDH1 R132C and at IDH1 R132H was less than 300 nM throughout.

Regarding `CCc1cccc(CC)c1-n1c(C=C(C)C)c(C(=O)N2CCN[C@@H](C)C2)cc(-c2nc(-c3ccc(C(F)F)cc3)cs2)c1=O` [Compound 108], the IC50 on IDH1 R132C and on IDH1 R132H was less than 300 nM in each case.

As to `CCc1cccc(CC)c1-n1c(C=C(C)C)c(C(=O)N2CCN[C@@H](C)C2)cc(-c2nc(-c3ccc(Cl)cc3)cs2)c1=O` [Compound 109], the IC50 at IDH1 R132C and against IDH1 R132H was less than 300 nM throughout.

Take `CCOc1ccc(Cl)cc1-n1c(C=C(C)C)c(C(=O)N2CCN[C@H](C)C2)cc(-c2nc(-c3ccc(C(F)(F)F)cc3)cs2)c1=O` [Compound 110]: the IC50 on IDH1 R132C and at IDH1 R132H was less than 300 nM in each case.

As for `CCc1cccc(CC)c1-n1c(C=C(C)C)c(C(=O)N2CCN[C@H](C)C2)cc(-c2nc(-c3ccc(C(F)F)cc3)cs2)c1=O` [Compound 111], the IC50 against IDH1 R132C and at IDH1 R132H was less than 300 nM throughout.

Take `CCc1cccc(CC)c1-n1c(C=C(C)C)c(C(=O)N2CCN[C@H](C)C2)cc(-c2nc(-c3ccc(Cl)cc3)cs2)c1=O` [Compound 112]: the IC50 at IDH1 R132C and at IDH1 R132H was less than 300 nM throughout.

For orientation: IC50 means the concentration that inhibits the measured activity by half.
